# Assay results taken from patent US9150632B2 (Indiana University Research and Technology Corporation, priority 2009, dated 2015).
# Where two headings read alike, the source gives them in different places. Non-standard residues stand in square brackets, D forms with d. Residues, ends and D or L forms follow the SMILES beside them. No end group written: not given here. *: point of attachment. Palmitoyl = CCCCCCCCCCCCCCCC(=O)*; Myristoyl = CCCCCCCCCCCCCC(=O)*; Aib = CC(C)(N)C(=O)O
# Key:
# glucagon receptor = molecular target: T1, glucagon receptor (Homo sapiens, UniProt P47871); assay: Functional assay-cAMP synthesis, luciferase reporter in HEK293 cells, glucagon receptor; assay type: cell-based; conditions: for % Activity of Glucagon: Table 21, relative to the native peptide; for Glucagon Receptor % relative activity: activity relative to the native hormone at the indicated receptor; for EC50: cAMP induction, in vitro, as in Example 14; for % Relative activity at the Receptor for Glucagon: relative to the native hormone
# T1 construct: expressed in transfected cells; host or cells: HEK293
# GLP-1 receptor [1] = molecular target: T2, GLP-1 receptor (Homo sapiens, UniProt P43220); conditions: for % Activity of GLP-1: Table 21, relative to the native peptide; for GLP-1 Receptor % relative activity: activity relative to the native hormone at the indicated receptor; for % Relative activity at the Receptor for GLP-1: relative to the native hormone; for EC50: read-out: GLP-1 Receptor EC50, cAMP induction, in vitro, as in Example 14
# GIP receptor = molecular target: T3, GIP receptor (Homo sapiens, UniProt P48546); assay: Functional assay-cAMP synthesis, luciferase reporter in HEK293 cells, GIP receptor; assay type: cell-based; conditions: for GIP Receptor % relative activity: activity relative to the native hormone at the indicated receptor; for EC50: cAMP induction, in vitro, as in Example 14; for % Relative activity at the Receptor for GIP: relative to the native hormone
# T3 construct: expressed in transfected cells; host or cells: HEK293
# T3 sequence (P48546 22-466): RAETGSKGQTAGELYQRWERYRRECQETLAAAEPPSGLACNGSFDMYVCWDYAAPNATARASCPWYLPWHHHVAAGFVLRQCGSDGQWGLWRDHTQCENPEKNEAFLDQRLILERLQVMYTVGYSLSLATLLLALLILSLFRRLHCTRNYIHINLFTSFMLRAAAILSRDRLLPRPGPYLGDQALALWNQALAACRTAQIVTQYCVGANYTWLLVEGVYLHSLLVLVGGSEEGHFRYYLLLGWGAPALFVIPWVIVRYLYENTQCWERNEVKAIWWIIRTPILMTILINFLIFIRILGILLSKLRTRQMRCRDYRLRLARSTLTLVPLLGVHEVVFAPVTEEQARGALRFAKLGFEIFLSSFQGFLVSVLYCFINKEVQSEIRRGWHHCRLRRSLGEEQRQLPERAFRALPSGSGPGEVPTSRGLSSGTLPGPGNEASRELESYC
# GLP-1 receptor [2] = molecular target: T2, GLP-1 receptor; assay: cell-based
# T1 sequence (P47871 26-477): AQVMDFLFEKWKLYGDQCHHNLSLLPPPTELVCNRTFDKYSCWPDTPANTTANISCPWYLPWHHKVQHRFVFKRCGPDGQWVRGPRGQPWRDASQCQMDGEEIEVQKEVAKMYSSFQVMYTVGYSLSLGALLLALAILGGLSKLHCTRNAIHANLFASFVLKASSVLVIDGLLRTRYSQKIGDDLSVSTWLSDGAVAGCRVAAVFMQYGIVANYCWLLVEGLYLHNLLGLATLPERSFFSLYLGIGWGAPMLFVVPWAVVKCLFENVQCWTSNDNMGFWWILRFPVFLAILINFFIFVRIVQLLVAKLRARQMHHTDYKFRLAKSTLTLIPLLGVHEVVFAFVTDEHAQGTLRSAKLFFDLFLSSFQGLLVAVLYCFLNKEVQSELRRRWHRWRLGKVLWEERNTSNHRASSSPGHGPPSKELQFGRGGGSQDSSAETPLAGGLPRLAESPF
# T2 sequence (P43220 24-463, species assumed): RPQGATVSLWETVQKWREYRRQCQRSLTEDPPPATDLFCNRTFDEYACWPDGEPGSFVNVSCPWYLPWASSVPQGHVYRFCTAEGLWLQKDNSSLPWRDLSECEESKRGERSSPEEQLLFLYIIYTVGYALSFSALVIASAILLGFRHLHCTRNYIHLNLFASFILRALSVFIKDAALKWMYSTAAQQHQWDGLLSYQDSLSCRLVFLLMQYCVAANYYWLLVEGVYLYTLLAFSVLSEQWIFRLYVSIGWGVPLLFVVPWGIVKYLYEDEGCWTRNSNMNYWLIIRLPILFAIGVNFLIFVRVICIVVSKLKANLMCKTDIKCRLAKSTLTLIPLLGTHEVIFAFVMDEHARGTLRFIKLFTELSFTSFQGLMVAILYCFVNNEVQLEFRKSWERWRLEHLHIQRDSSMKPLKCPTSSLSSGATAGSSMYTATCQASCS
% Activity of Glucagon (glucagon receptor),% Activity of GLP-1 (GLP-1 receptor [1]),Molecule,Glucagon Receptor % relative activity (glucagon receptor),GIP Receptor % relative activity (GIP receptor),GLP-1 Receptor % relative activity (GLP-1 receptor [1]),EC50 (GIP receptor; read-out: GIP Receptor EC50),EC50 (GLP-1 receptor [1]),further results
21.9%,6.3%,"CCCCCCCCCCCCCC(=O)NCCCC[C@H](NC(=O)[C@H](CC(=O)O)NC(=O)[C@H](CO)NC(=O)[C@@H](NC(=O)[C@H](Cc1ccccc1)NC(=O)[C@@H](NC(=O)CNC(=O)[C@H](CCC(N)=O)NC(=O)[C@@H](CO)NC(=O)[C@@H](N)Cc1c[nH]cn1)[C@@H](C)O)[C@@H](C)O)C(=O)N[C@@H](CO)C(=O)N[C@@H](CCCCN)C(=O)N[C@@H](Cc1ccc(O)cc1)C(=O)N[C@@H](CC(C)C)C(=O)N[C@@H](CC(=O)O)C(=O)N[C@@H](CCC(=O)O)C(=O)N[C@@H](CCCNC(=N)N)C(=O)N[C@@H](CCCNC(=N)N)C(=O)N[C@@H](C)C(=O)N[C@@H](CCCCN)C(=O)N[C@@H](CC(=O)O)C(=O)N[C@@H](Cc1ccccc1)C(=O)N[C@H](C(=O)N[C@@H](CCC(N)=O)C(=O)N[C@@H](Cc1c[nH]c2ccccc12)C(=O)N[C@@H](CC(C)C)C(=O)N[C@@H](CCSC)C(=O)N[C@@H](CC(N)=O)C(=O)N[C@H](C(N)=O)[C@@H](C)O)C(C)C [dS2, E16/K20, K10(C14) Gluc Amide, HXQGTFTSDKSKYLDERRAKDFVQWLMNT-amide]",–,–,–,–,–,–
44.7%,19.5%,"CCCCCCCCCCCCCCCC(=O)NCCCC[C@H](NC(=O)[C@H](CC(=O)O)NC(=O)[C@H](CO)NC(=O)[C@@H](NC(=O)[C@H](Cc1ccccc1)NC(=O)[C@@H](NC(=O)CNC(=O)[C@H](CCC(N)=O)NC(=O)[C@@H](CO)NC(=O)[C@@H](N)Cc1c[nH]cn1)[C@@H](C)O)[C@@H](C)O)C(=O)N[C@@H](CO)C(=O)N[C@@H](CCCCN)C(=O)N[C@@H](Cc1ccc(O)cc1)C(=O)N[C@@H](CC(C)C)C(=O)N[C@@H](CC(=O)O)C(=O)N[C@@H](CCC(=O)O)C(=O)N[C@@H](CCCNC(=N)N)C(=O)N[C@@H](CCCNC(=N)N)C(=O)N[C@@H](C)C(=O)N[C@@H](CCCCN)C(=O)N[C@@H](CC(=O)O)C(=O)N[C@@H](Cc1ccccc1)C(=O)N[C@H](C(=O)N[C@@H](CCC(N)=O)C(=O)N[C@@H](Cc1c[nH]c2ccccc12)C(=O)N[C@@H](CC(C)C)C(=O)N[C@@H](CCSC)C(=O)N[C@@H](CC(N)=O)C(=O)N[C@H](C(N)=O)[C@@H](C)O)C(C)C [dS2, E16/K20, K10(C16) Gluc Amide, HXQGTFTSDKSKYLDERRAKDFVQWLMNT-amide]",–,–,–,–,–,–
196%,60%,"CCCCCCCCCCCCCCCCCC(=O)NCCCC[C@H](NC(=O)[C@H](CC(=O)O)NC(=O)[C@H](CO)NC(=O)[C@@H](NC(=O)[C@H](Cc1ccccc1)NC(=O)[C@@H](NC(=O)CNC(=O)[C@H](CCC(N)=O)NC(=O)[C@@H](CO)NC(=O)[C@@H](N)Cc1c[nH]cn1)[C@@H](C)O)[C@@H](C)O)C(=O)N[C@@H](CO)C(=O)N[C@@H](CCCCN)C(=O)N[C@@H](Cc1ccc(O)cc1)C(=O)N[C@@H](CC(C)C)C(=O)N[C@@H](CC(=O)O)C(=O)N[C@@H](CCC(=O)O)C(=O)N[C@@H](CCCNC(=N)N)C(=O)N[C@@H](CCCNC(=N)N)C(=O)N[C@@H](C)C(=O)N[C@@H](CCCCN)C(=O)N[C@@H](CC(=O)O)C(=O)N[C@@H](Cc1ccccc1)C(=O)N[C@H](C(=O)N[C@@H](CCC(N)=O)C(=O)N[C@@H](Cc1c[nH]c2ccccc12)C(=O)N[C@@H](CC(C)C)C(=O)N[C@@H](CCSC)C(=O)N[C@@H](CC(N)=O)C(=O)N[C@H](C(N)=O)[C@@H](C)O)C(C)C [dS2, E16/K20, K10(C18) Gluc Amide]",–,–,–,–,–,–
–,–,CC[C@H](C)[C@H](NC(=O)[C@H](Cc1ccccc1)NC(=O)[C@H](CCC(=O)O)NC(=O)[C@H](CCCCN)NC(=O)[C@H](C)NC(=O)[C@H](C)NC(=O)[C@H](CCC(N)=O)NC(=O)[C@H](CCC(=O)O)NC(=O)[C@H](CC(=O)O)NC(=O)[C@H](CC(C)C)NC(=O)[C@H](Cc1ccc(O)cc1)NC(=O)[C@H](CCCCN)NC(=O)[C@H](CO)NC(=O)[C@H](Cc1ccc(O)cc1)NC(=O)[C@H](CC(=O)O)NC(=O)[C@H](CO)NC(=O)[C@@H](NC(=O)[C@H](Cc1ccccc1)NC(=O)[C@@H](NC(=O)CNC(=O)[C@H](CCC(N)=O)NC(=O)C(C)(C)NC(=O)[C@@H](N)Cc1c[nH]cn1)[C@@H](C)O)[C@@H](C)O)C(=O)N[C@@H](CS)C(=O)N[C@@H](Cc1c[nH]c2ccccc12)C(=O)N[C@@H](CC(C)C)C(=O)N[C@@H](CCSC)C(=O)N[C@@H](CC(N)=O)C(=O)NCC(=O)NCC(=O)N1CCC[C@H]1C(=O)N[C@@H](CO)C(=O)N[C@@H](CO)C(=O)NCC(=O)N[C@@H](C)C(=O)N1CCC[C@H]1C(=O)N1CCC[C@H]1C(=O)N1CCC[C@H]1C(=O)N[C@@H](CO)C(=O)N[C@@H](CCCCN)C(N)=O [mt-346],3.70%,0.34%,366.67%,–,–,EC50 (glucagon receptor): 954 pM; EC50 (GIP receptor): 796 pM; EC50 (GLP-1 receptor [2]): 1.5 pM
–,–,CCCCCCCCCCCCCC(=O)NCCCC[C@H](NC(=O)[C@H](CO)NC(=O)[C@@H]1CCCN1C(=O)[C@@H]1CCCN1C(=O)[C@@H]1CCCN1C(=O)[C@H](C)NC(=O)CNC(=O)[C@H](CO)NC(=O)[C@H](CO)NC(=O)[C@@H]1CCCN1C(=O)CNC(=O)CNC(=O)[C@H](CC(N)=O)NC(=O)[C@H](CCSC)NC(=O)[C@H](CC(C)C)NC(=O)[C@H](Cc1c[nH]c2ccccc12)NC(=O)[C@H](CS)NC(=O)[C@@H](NC(=O)[C@H](Cc1ccccc1)NC(=O)[C@H](CCC(=O)O)NC(=O)[C@H](CCCCN)NC(=O)[C@H](C)NC(=O)[C@H](C)NC(=O)[C@H](CCC(N)=O)NC(=O)C(C)(C)NC(=O)[C@H](CC(=O)O)NC(=O)[C@H](CC(C)C)NC(=O)[C@H](Cc1ccc(O)cc1)NC(=O)[C@H](CCCCN)NC(=O)[C@H](CO)NC(=O)[C@H](Cc1ccc(O)cc1)NC(=O)[C@H](CC(=O)O)NC(=O)[C@H](CO)NC(=O)[C@@H](NC(=O)[C@H](Cc1ccccc1)NC(=O)[C@@H](NC(=O)CNC(=O)[C@H](CCC(N)=O)NC(=O)C(C)(C)NC(=O)[C@@H](N)Cc1c[nH]cn1)[C@@H](C)O)[C@@H](C)O)[C@@H](C)CC)C(N)=O [mt-347] (H-H[Aib]QGTFTSDYSKYLD[Aib]QAAKEFICWLMNGGPSSGAPPPSK(Myristoyl)-NH2; N-terminus assumed),111.36%,0.70%,67.07%,–,–,% Relative activity at the Receptor for Glucagon (glucagon receptor; Table 35): 111%; % Relative activity at the Receptor for GIP (GIP receptor; Table 35): 0.7%; % Relative activity at the Receptor for GLP-1 (GLP-1 receptor [1]; Table 35): 67%
–,–,CCCCCCCCCCCCCCCC(=O)NCCCC[C@H](NC(=O)[C@H](CO)NC(=O)[C@@H]1CCCN1C(=O)[C@@H]1CCCN1C(=O)[C@@H]1CCCN1C(=O)[C@H](C)NC(=O)CNC(=O)[C@H](CO)NC(=O)[C@H](CO)NC(=O)[C@@H]1CCCN1C(=O)CNC(=O)CNC(=O)[C@H](C)NC(=O)[C@H](CC(C)C)NC(=O)[C@H](CC(C)C)NC(=O)[C@H](Cc1c[nH]c2ccccc12)NC(=O)[C@H](CC(N)=O)NC(=O)[C@@H](NC(=O)[C@H](Cc1ccccc1)NC(=O)[C@H](CCC(=O)O)NC(=O)C(C)(C)NC(=O)[C@H](C)NC(=O)[C@H](C)NC(=O)[C@H](CCC(N)=O)NC(=O)[C@H](CCCCN)NC(=O)[C@H](CC(=O)O)NC(=O)[C@H](CC(C)C)NC(=O)[C@H](Cc1ccc(O)cc1)NC(=O)[C@@H](NC(=O)[C@H](CO)NC(=O)[C@H](Cc1ccc(O)cc1)NC(=O)[C@H](CC(=O)O)NC(=O)[C@H](CO)NC(=O)[C@@H](NC(=O)[C@H](Cc1ccccc1)NC(=O)[C@@H](NC(=O)CNC(=O)[C@H](CCC(N)=O)NC(=O)C(C)(C)NC(=O)[C@@H](N)Cc1ccc(O)cc1)[C@@H](C)O)[C@@H](C)CC)[C@@H](C)CC)C(C)C)C(N)=O [mt-358] (H-Y[Aib]QGTFISDYSIYLDKQAA[Aib]EFVNWLLAGGPSSGAPPPSK(Palmitoyl)-NH2),–,–,–,–,–,% Relative activity at the Receptor for Glucagon (glucagon receptor; Table 36): 710.29%; % Relative activity at the Receptor for GIP (GIP receptor; Table 36): 313.61%; % Relative activity at the Receptor for GLP-1 (GLP-1 receptor [1]; Table 36): 11.89%
–,–,H-HSQGTFTSDYSKYLDSRRAQDFVQWLVKGGPSSGAPPPS-NH2 [VKGG^30 PSSGAPPPS (SEQ ID NO: 524)],–,–,–,–,–,Glucagon Receptor Relative Potency (glucagon receptor; Table 11): 7%; GLP-1 Receptor Relative Potency (GLP-1 receptor [1]; Table 11): 12%
–,–,"mt-349 (H[Aib]QGTFTSDYSKYLDEQAAKEFIC(PEG 40 kDa)WLMNGGPSSGAPPPSK(Myristoyl)-NH2; also: acylated with a C14 fatty acyl group, site not given here)",3.82%,0.18%,286.36%,1990 pM,2.2 pM,EC50 (glucagon receptor; read-out: Glucagon Receptor EC50): 549 pM
–,–,"mt-351: pegylated glucagon peptide of Table 34 (H[Aib]QGTFTSDYSKYLD[Aib]QAAKEFIC(PEG 40 kDa)WLMNGGPSSGAPPPSK(Myristoyl)-NH2; also: acylated with a C14 fatty acyl group, site not given here)",–,0.09%,150.00%,4120 pM,4.2 pM,–
–,–,mt-352: pegylated glucagon peptide of Table 34 (H[Aib]QGTFTSDYSKYLD[Aib]QAAKEFIC(PEG 40 kDa)WLMNGGPSSGAPPPSK-NH2),–,0.01%,23.08%,51100 pM,27.3 pM,–
